From ChEMBL document CHEMBL1124623, “2,4-Diamino-5-benzylpyrimidines and analogues as antibacterial agents. 12. 1,2-Dihydroquinolylmethyl analogues with high activity and specificity for bacterial dihydrofolate reductase” (J Med Chem, 1989)
Converted amounts (≈) assume the structure as drawn.

Legend:
Dihydrofolate reductase [1] = biological target: T1, Dihydrofolate reductase (Rattus norvegicus, UniProt Q920D2)
T1 sequence (Q920D2 whole entry): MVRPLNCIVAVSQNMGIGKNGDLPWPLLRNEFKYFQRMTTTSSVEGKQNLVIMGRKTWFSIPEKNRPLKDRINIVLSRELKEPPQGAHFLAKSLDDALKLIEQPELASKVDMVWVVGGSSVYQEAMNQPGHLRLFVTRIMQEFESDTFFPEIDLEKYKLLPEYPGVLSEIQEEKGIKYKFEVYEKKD

Dihydrofolate reductase [2] = biological target: T1, Dihydrofolate reductase; experiment: Inhibitory activity against Dihydrofolate reductase in rat liver; assay type: functional, tissue-based; conditions: read-out: I50
[3] = Dissociation constant of compound at 20 degree C; assay type: physicochemical
Streptococcus pyogenes [4] = experiment: Comparative in vitro antibacterial activity of compound with trimethoprim against Streptococcus pyogenes CN10; assay type: functional
[5] = Comparative in vitro antibacterial activity of compound with trimethoprim against Salmonella typhi CN512; assay type: functional, salmonella typhosa
Klebsiella pneumoniae [6] = experiment: Comparative in vitro antibacterial activity of compound with trimethoprim against Klebsiella pneumoniae CN3632; assay type: functional
Escherichia coli [7] = experiment: Comparative in vitro antibacterial activity of compound with trimethoprim against Escherichia coli CN314; assay type: functional
Enterococcus faecalis = experiment: Comparative in vitro antibacterial activity of compound with trimethoprim against Streptococcus faecalis CN478; assay type: functional
Klebsiella aerogenes [8] = experiment: Comparative in vitro antibacterial activity of compound with trimethoprim against Enterobacter aerogenes 2200/86; assay type: functional
Proteus vulgaris [9] = experiment: Comparative in vitro antibacterial activity of compound with trimethoprim against Proteus vulgaris CN329; assay type: functional
Staphylococcus aureus = experiment: Comparative in vitro antibacterial activity of compound with trimethoprim against Staphylococcus aureus CN491; assay type: functional
Shigella flexneri [10] = experiment: Comparative in vitro antibacterial activity of compound with trimethoprim against Shigella flexneri CN6007; assay type: functional
Salmonella typhimurium [11] = experiment: Comparative in vitro antibacterial activity of compound with trimethoprim against Salmonella Typhimurium S 8587; assay type: functional, Salmonella enterica subsp. enterica serovar Typhimurium; conditions: Salmonella enterica
Streptococcus agalactiae [12] = experiment: Comparative in vitro antibacterial activity of compound with trimethoprim against Streptococcus agalactiae CN1143; assay type: functional
Vibrio cholerae = experiment: Comparative in vitro antibacterial activity of compound with trimethoprim against Vibrio cholerae ATCC 14035; assay type: functional
Dihydrofolate reductase [13] = biological target: T2, Dihydrofolate reductase (Escherichia coli, UniProt P0ABQ4)
T2 sequence (P0ABQ4 whole entry): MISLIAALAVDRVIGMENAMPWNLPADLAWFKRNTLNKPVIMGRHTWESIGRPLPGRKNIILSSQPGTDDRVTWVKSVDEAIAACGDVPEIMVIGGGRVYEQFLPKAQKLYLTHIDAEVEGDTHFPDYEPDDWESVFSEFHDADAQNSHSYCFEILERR
Description: Apparent binding affinity of compound in Escherichia coli DHFR

Dihydrofolate reductase [14] = biological target: T3, Dihydrofolate reductase (Gallus gallus, UniProt P00378); experiment: Inhibitory activity against Dihydrofolate reductase in chicken; conditions: read-out: I50
T3 sequence (P00378 whole entry): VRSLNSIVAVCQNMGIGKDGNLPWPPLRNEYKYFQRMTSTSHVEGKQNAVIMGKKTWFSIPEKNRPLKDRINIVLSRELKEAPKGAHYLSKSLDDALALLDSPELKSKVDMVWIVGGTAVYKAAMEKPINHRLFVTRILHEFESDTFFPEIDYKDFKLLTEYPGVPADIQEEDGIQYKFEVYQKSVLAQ

[15] = Comparative in vitro antibacterial activity of compound with trimethoprim against Salmonella typhi CN512 on different day; assay type: functional, salmonella typhosa
Salmonella typhimurium [16] = experiment: Comparative in vitro antibacterial activity of compound with trimethoprim against Salmonella Typhimurium S 8587 on different day; assay type: functional, Salmonella enterica subsp. enterica serovar Typhimurium; conditions: Salmonella enterica
Streptococcus pyogenes [17] = experiment: Comparative in vitro antibacterial activity of compound with trimethoprim against Streptococcus pyogenes CN10 on different day; assay type: functional
Streptococcus agalactiae [18] = experiment: Comparative in vitro antibacterial activity of compound with trimethoprim against Streptococcus agalactiae CN1143 on different day; assay type: functional
Klebsiella pneumoniae [19] = experiment: Comparative in vitro antibacterial activity of compound with trimethoprim against Klebsiella pneumoniae CN3632 on different day; assay type: functional
Proteus vulgaris [20] = experiment: Comparative in vitro antibacterial activity of compound with trimethoprim against Proteus vulgaris CN329 on different day; assay type: functional
Klebsiella aerogenes [21] = experiment: Comparative in vitro antibacterial activity of compound with trimethoprim against Enterobacter aerogenes 2200/86 on different day; assay type: functional
Escherichia coli [22] = experiment: Comparative in vitro antibacterial activity of compound with trimethoprim against Escherichia coli CN314 on different day; assay type: functional
Shigella flexneri [23] = experiment: Comparative in vitro antibacterial activity of compound with trimethoprim against Shigella flexneri CN6007 on different day; assay type: functional

| Structure (SMILES) | IC50 (Dihydrofolate reductase [1]) [µM] | MIC (Streptococcus pyogenes [4]) [µg/mL] | MIC [5] [µg/mL] | MIC (Escherichia coli [7]) [µg/mL] | MIC (Enterococcus faecalis) [µg/mL] | MIC (Klebsiella aerogenes [8]) [µg/mL] | MIC (Proteus vulgaris [9]) [µg/mL] | MIC (Staphylococcus aureus) [µg/mL] | MIC (Shigella flexneri [10]) [µg/mL] | MIC (Salmonella typhimurium [11]) [µg/mL] | MIC (Streptococcus agalactiae [12]) [µg/mL] | MIC (Vibrio cholerae) [µg/mL] | also measured |
| --- | --- | --- | --- | --- | --- | --- | --- | --- | --- | --- | --- | --- | --- |
| CC1=CC(C)(C)Nc2c1cc(Cc1cnc(N)nc1N)cc2[S+](C)[O-] (stereo not drawn) | 56 | – | – | – | – | – | – | – | – | – | – | – | – |
| COc1cc(Cc2cnc(N)nc2N)cc2c1N(C)CCC2C (stereo not drawn) | – | – | – | – | – | – | – | – | – | – | – | – | IC50 (Dihydrofolate reductase [2]): 250 µM; pKa [3]: 6.51 |
| CC1=CC(C)(C)Nc2ccc(Cc3cnc(N)nc3N)cc21 | 240 | – | – | – | – | – | – | – | – | – | – | – | – |
| COc1cc(Cc2cnc(N)nc2N)cc2c1NC(C)(CF)C=C2CF (stereo not drawn) | 230 | 0.1 (≈ 0.277 µM) | 10 (≈ 27.7 µM) | 10 (≈ 27.7 µM) | 0.3 (≈ 0.83 µM) | 30 (≈ 83 µM) | 10 (≈ 27.7 µM) | 0.3 (≈ 0.83 µM) | 10 (≈ 27.7 µM) | 3 (≈ 8.3 µM) | 0.3 (≈ 0.83 µM) | 3 (≈ 8.3 µM) | MIC (Klebsiella pneumoniae [6]): 10 µg/mL (≈ 27.7 µM) |
| CC1=CC(C)(C)Nc2ccccc21 | – | – | – | – | – | – | – | – | – | – | – | – | pKa [3]: 3.69 |
| COc1cc(Cc2cnc(N)nc2N)cc2c1N(C)C(C)(C)C=C2C | 340 | – | – | – | – | – | – | – | – | – | – | – | – |
| CC1CC(C)(C)Nc2ccc(Cc3cnc(N)nc3N)cc21 (stereo not drawn) | 300 | – | – | – | – | – | – | – | – | – | – | – | – |
| CSc1cc(Cc2cnc(N)nc2N)cc2c1NC(C)(C)C=C2C | 118 | 0.1 (≈ 0.293 µM) | 30 (≈ 87.9 µM) | 10 (≈ 29.3 µM) | ≤ 0.03 | 10 (≈ 29.3 µM) | > 100 | 0.3 (≈ 0.879 µM) | 30 (≈ 87.9 µM) | 30 (≈ 87.9 µM) | 0.3 (≈ 0.879 µM) | 1 (≈ 2.93 µM) | MIC (Klebsiella pneumoniae [6]): 100 µg/mL (≈ 293 µM); Ki (Dihydrofolate reductase [13]): 0.00043 µM |
| COc1cc(Cc2cnc(N)nc2N)cc2c1NC(C)(C)C=C2C | 300 | 0.1 (≈ 0.307 µM) | 10 (≈ 30.7 µM) | 3 (≈ 9.22 µM) | 0.1 (≈ 0.307 µM) | 3 (≈ 9.22 µM) | 3 (≈ 9.22 µM) | 0.3 (≈ 0.922 µM) | 3 (≈ 9.22 µM) | 10 (≈ 30.7 µM) | 0.3 (≈ 0.922 µM) | 3 (≈ 9.22 µM) | MIC (Klebsiella pneumoniae [6]): 10 µg/mL (≈ 30.7 µM); IC50 (Dihydrofolate reductase [14]): 1.3 µM |
| CN1CCCc2ccccc21 | – | – | – | – | – | – | – | – | – | – | – | – | pKa [3]: 4.1 |
| COc1cc(Cc2cnc(N)nc2N)cc2c1NC(C)(C)CC2C (stereo not drawn) | 430 | 1 (≈ 3.05 µM) | 100 (≈ 305 µM) | 30 (≈ 91.6 µM) | 1 (≈ 3.05 µM) | 10 (≈ 30.5 µM) | > 100 | 3 (≈ 9.16 µM) | 30 (≈ 91.6 µM) | 30 (≈ 91.6 µM) | 1 (≈ 3.05 µM) | 3 (≈ 9.16 µM) | – |
| COc1cc(Cc2cnc(N)nc2N)cc2c1NCCC2C (stereo not drawn) | 33 | – | – | – | – | – | – | – | – | – | – | – | – |
| CC1=CC(C)(C)Nc2c(C)cc(Cc3cnc(N)nc3N)cc21 | 500 | – | – | – | – | – | – | – | – | – | – | – | – |
| COc1cc(Cc2cnc(N)nc2N)cc2c(C)ccnc12 | 20 | – | – | – | – | – | – | – | – | – | – | – | – |
| COc1cc(Cc2cnc(N)nc2N)cc2c1NC(C)(CF)C(F)=C2C (stereo not drawn) | 233 | 0.03 (≈ 0.083 µM) | 1 (≈ 2.77 µM) | 1 (≈ 2.77 µM) | 0.0001 (≈ 0.000277 µM) | 1 (≈ 2.77 µM) | 3 (≈ 8.3 µM) | 0.001 (≈ 0.00277 µM) | 3 (≈ 8.3 µM) | 3 (≈ 8.3 µM) | 0.1 (≈ 0.277 µM) | 3 (≈ 8.3 µM) | MIC (Klebsiella pneumoniae [6]): 10 µg/mL (≈ 27.7 µM); MIC [15]: 30 µg/mL (≈ 83 µM); Ki (Dihydrofolate reductase [13]): 0.0001 µM; MIC (Salmonella typhimurium [16]): 3 µg/mL (≈ 8.3 µM); MIC (Streptococcus pyogenes [17]): 0.0001 µg/mL (≈ 0.000277 µM); MIC (Streptococcus agalactiae [18]): 0.03 µg/mL (≈ 0.083 µM); MIC (Klebsiella pneumoniae [19]): 1 µg/mL (≈ 2.77 µM); MIC (Proteus vulgaris [20]): 3 µg/mL (≈ 8.3 µM); MIC (Klebsiella aerogenes [21]): 10 µg/mL (≈ 27.7 µM); MIC (Escherichia coli [22]): 10 µg/mL (≈ 27.7 µM); MIC (Shigella flexneri [23]): 0.3 µg/mL (≈ 0.83 µM) |
| CC1=CC(C)(C)Nc2c1cc(Cc1cnc(N)nc1N)c1cccnc21 | – | 0.03 (≈ 0.0866 µM) | 30 (≈ 86.6 µM) | 30 (≈ 86.6 µM) | 0.3 (≈ 0.866 µM) | 10 (≈ 28.9 µM) | > 100 | 0.1 (≈ 0.289 µM) | 100 (≈ 289 µM) | 100 (≈ 289 µM) | 0.3 (≈ 0.866 µM) | 1 (≈ 2.89 µM) | MIC (Klebsiella pneumoniae [6]): > 300 µg/mL |
| CC1=CC(C)(C)Nc2c(Cl)cc(Cc3cnc(N)nc3N)cc21 | 76 | 10 (≈ 30.3 µM) | 30 (≈ 91 µM) | 100 (≈ 303 µM) | 300 (≈ 910 µM) | 300 (≈ 910 µM) | 30 (≈ 91 µM) | 30 (≈ 91 µM) | 100 (≈ 303 µM) | 30 (≈ 91 µM) | 100 (≈ 303 µM) | 100 (≈ 303 µM) | MIC (Klebsiella pneumoniae [6]): 30 µg/mL (≈ 91 µM) |
| CCN1CCC(C)c2ccccc21 (stereo not drawn) | – | – | – | – | – | – | – | – | – | – | – | – | pKa [3]: 4.18 |
| CCOc1cc(Cc2cnc(N)nc2N)cc2c1NC(C)(C)C=C2C | 250 | – | – | – | – | – | – | – | – | – | – | – | – |
| COc1cccc2c1NC(C)(C)C=C2C | – | – | – | – | – | – | – | – | – | – | – | – | pKa [3]: 3.36 |
| COc1cc(Cc2cnc(N)nc2N)cc2c1N(CCOC(C)=O)C(C)(C)C=C2C | 164 | – | – | – | – | – | – | – | – | – | – | – | – |
| CCc1cc(Cc2cnc(N)nc2N)cc2c1NC(C)(C)C=C2C | 174 | – | – | – | – | – | – | – | – | – | – | – | – |
| COc1cccc2c1N(C)C(C)(C)C=C2C | – | – | – | – | – | – | – | – | – | – | – | – | pKa [3]: 6.82 |
